The values that follow come from PMC9223658, “New Borane-Protected Derivatives of α-Aminophosphonous Acid as Anti-Osteosarcoma Agents: ADME Analysis and Molecular Modeling, In Vitro Studies on Anti-Cancer Activities, and NEP Inhibition as a Possible Mechanism of Anti-Proliferative Activity” (International Journal of Molecular Sciences, 2022).

One data set deals with osteosarcoma HOS cells. The data set can be described thus: MTT proliferation assay, 96 h. The format is cell-based, human. Conditions: proliferation, 10% FBS, read-out: IC50 (µM ± SD) HOS. As for the experimental part: (§1) One of the features specific totumor cells is the unlimited potential for proliferation. […] To this end, the assay conditions were established suchthat they encourage the proliferation of OS cells, i.e., the cell cultures at low density were incubated with compounds diluted in the growth medium (10% FBS) for an extended time of 96 h. Additionally, cisplatin, i.e., a common cytostatic used in osteosarcoma treatment, was included as a positive control in this study. Moreover, since the new generation of anti-cancer compounds is highly desired to be inert (non-cytotoxic) towards normal cells, the influence of compounds 1–7 on the viability of human normal cells (osteoblasts hFOB 1.19 and colon fibroblasts CCD-18Co) was also determined.To this end, the assay conditions were established such that they restrict the proliferation of OS cells and to establish whether the compounds have cytotoxic potential, i.e., the cell cultures were incubated with compounds diluted in the medium with a reduced concentration of FBS (2%) for a shortened time of 24 h. […] However, this activity varied depending on both the types of the compounds and the osteosarcoma cell lines (Table 4).
(§2) The anti-proliferative activity of compounds 1–7 against the HOS and Saos-2 osteosarcoma cells and the viability of the human normal hFOB 1.19 and CCD-18Co cells were screened by means of the MTT method. This method is commonly used to assess cell viability and proliferation or to determine the cytotoxicity of any compounds. It is a reliable method for this purpose because it is based on measurement of the level reduction in MTT dye to formazan byNAD(P)H-dependent oxidoreductase enzymes of metabolically active cells.
(§3) To assess the anti-proliferative activity of compounds 1–7 against the HOS and Saos-2 osteosarcoma cells, 3.0 × 10^4 cells/mLseeded (low density culture) into 96-well plates (Nunc, Roskilde, Denmark) were incubated with each compound at concentrations of 3.125, 6.25, 12.5, 25, 50, 100 and 200 µM prepared in medium with 10% FBS (growth medium) for 96 h. Additionally, cisplatin (Sigma Aldrich), i.e., a common cytostatic used in osteosarcoma treatment, was included as a positive control in this study. It was tested in the same conditions as compounds 1–7. The negative control was constituted by the untreated cells (0 µM). Next, the MTT assay was carried out as described previously.
(§4) The results of these assays were calculated as a percent of the untreated cells (100%; control). Then, the IC50 (concentration resulting in 50% inhibition of proliferation) and CC50 (concentration resulting in a 50% decrease in viability) values were calculated from a non-linear regression (log(inhibitor) vs. normalized response-variable slope) using GraphPad Prism 5.0 (GraphPAD Software Inc., San Diego, CA, USA). The IC50 and CC50 results were presented as themean ± SD of at least three experiments. In the case of the BrdU assay, the results were presented as a percent of untreated cells (100%; control).

The subject of data set [1] is osteosarcoma Saos-2 cells. In words: MTT proliferation assay, 96 h. Conditions: MTT, 10% FBS, read-out: IC50 (µM ± SD) Saos-2. Type of data set: cell-based, human. As for the experimental part:
as §1, §2, §3, §4

The test system of data set [2] is active caspase 3 in HOS cells. In words: Active caspase 3 assay (flow cytometry). The format is cell-based, human. Conditions: 3.5 µM (IC50 concentration), 72 h. As for the experimental part: (§5) The level of active executor caspase 3 and initiator caspase 9 was determined to examine whether compounds 4 and 6 induced apoptosis in the HOS and Saos-2 cells. The influence of compounds 4 and 6 on HOS and Saos-2 were determined with the caspase 3 assay, whereas the influence of compound 6 on the HOS cells was investigated with the caspase 9 assay. In both assays, the osteosarcoma cells (3.0 × 10^5 cells/mL) were seeded in 6-well plates. The cells were treated with compounds 4 and 6 at concentrations of 12.5, 25, 50 µM and 20, 40, 80 µM as well as 15, 30, 60 µM and 21.25, 42.5, 85 µM for 72 h, respectively. The solutions of the compounds were prepared in a medium with 2% FBS. […] Next, floating and adherent cells were harvested and subjected to further steps of the staining procedures according to the manufacturer’s instruction. The level of active caspase 3 and caspase 9 was determined using the PE Active Caspase-3 Apoptosis Kit (BD Pharmingen^TM) and the CaspaTag^TM Caspase-9 in Situ Assay Kit (Millipore, Darmstadt, Germany), respectively. The number of stained cells (active caspase 3- or 9-positive cells) was measured using FACS Calibur, and the obtained data were analyzed using Cell Quest Pro Version 6.0. for the Macintosh operating system (BD Pharmingen™). The presented results were calculated as a percent of cells with either active caspase 3 or 9 among all the analyzed cells.
For orientation: Flow cytometry measures light scatter and fluorescence of single cells or particles in a stream.

Data set [3] concerns active caspase 3 in Saos-2 cells. In words: Active caspase 3 assay (flow cytometry). The format is cell-based, human. Conditions: Saos-2, 12.5 µM (IC50 concentration), 72 h. The protocol:
as §5

Data set [4] deals with active caspase 9 in HOS cells. In words: Active caspase 9 assay (flow cytometry). Type of data set: cell-based, human. Conditions: 3.5 µM (IC50 concentration), 72 h. As for the experimental part: as §5
The nature of data set [5]: MTT viability assay, 24 h. Conditions: human, 2% FBS. Type of data set: cell-based. The protocol:
as §1, §2
To assess the viability of human normal cells, confluent hFOB 1.19 (3 × 10^5 cells/mL) and CCD-18Co (1 × 10^5 cells/mL) cells seeded in 96-well plates (Nunc) were incubated with compounds 1–7 at concentrations of 3.125, 6.25, 12.5, 25, 50, 100 and 200 µM prepared in medium with 2% FBS (maintaining medium) for 24 h. The control was constituted by the untreated cells (0 µM). Next, the MTT assay was carried out as described previously.
as §4
Background: Formazan colour is commonly taken as a measure of viable cells.

For the next data set, the target named is T1, NEP (neprilysin) (Homo sapiens, UniProt P08473).
T1 construct: purchased BioVision, Waltham, MA, USA
The data set can be described thus: Neutral endopeptidase activity assay (fluorometric). The format is biochemical. The protocol:
The NEP activity in the presence of compounds 4 and 6 was determined using the Neprilysin Activity Assay Kit (BioVision, Waltham, MA, USA) according to the manufacturer’s instructions. The measurement is based on the ability of active neprilysin to cleave a synthetic substrate (Abz-based peptide) to release a fluorophore, which can be easily quantified using a fluorescence microplate reader. Briefly, pure neprilysin (5µLof stock solution) was incubated with solutions of the tested compounds (at least 4 concentrations in the range of 0.01–50 µM) for 10 min at 37 °C. The reaction was started by adding the substrate solution, and the final sample volume was 100µL. Fluorescence was measured (Ex/Em = 330/430nm) in the kinetic mode at 37 °C for 1–2 h. The same procedure was used to measure the control and background sample. Thiorphan was used as a reference NEP inhibitor. NEP activity was determined with the prepared Abz standard curve and expressed in µU/mL. The experiments were performed at least in triplicates, and the graphs represent mean ±SD values.

A further data set deals with HOS cells. In words: BrdU proliferation assay, 96 h. The note with it: for decrease in proliferation: 96 h. Type of data set: cell-based, human. As for the experimental part:
(§6) In the study on the implication of NEP in the anti-proliferative activity of compound 4, cell proliferation was determined with the BrdU assay. Cell cultures were prepared as described above. Depending on the requirements, the HOS and Saos-2 cells were treated with non-cytotoxic concentrations of the NEP inhibitor—thiorphan (1, 5, 20, 100, 200, 500 µM) or pre-treated with thiorphan (100 µM) for 1 h. In this scheme, compound 4 (HOS—25 µM; Saos-2—60 µM) was added alone or in combination with the NEP inhibitor into the cell cultures. Finally, cell proliferation was evaluated with the BrdU Cell Proliferation Assay according to the manufacturer’s instructions (Millipore, Darmstadt, Germany) after a 96-h incubation.
as §4

The next data set deals with Saos-2 cells. In words: BrdU proliferation assay, 96 h. The format is cell-based, human. The note with it: for decrease in proliferation: 96 h. As for the experimental part:
as §6, §4

[6] abbreviates: Homo sapiens, SAOS-2, proliferation.
Where [7] appears, read: normal osteoblasts hFOB 1.19 cells, read-out: CC50 (µM ± SD) hFOB 1.19.

Structures are written as SMILES. Where two headings read alike, the source gives them in different places.

T1 sequence (P08473 whole entry): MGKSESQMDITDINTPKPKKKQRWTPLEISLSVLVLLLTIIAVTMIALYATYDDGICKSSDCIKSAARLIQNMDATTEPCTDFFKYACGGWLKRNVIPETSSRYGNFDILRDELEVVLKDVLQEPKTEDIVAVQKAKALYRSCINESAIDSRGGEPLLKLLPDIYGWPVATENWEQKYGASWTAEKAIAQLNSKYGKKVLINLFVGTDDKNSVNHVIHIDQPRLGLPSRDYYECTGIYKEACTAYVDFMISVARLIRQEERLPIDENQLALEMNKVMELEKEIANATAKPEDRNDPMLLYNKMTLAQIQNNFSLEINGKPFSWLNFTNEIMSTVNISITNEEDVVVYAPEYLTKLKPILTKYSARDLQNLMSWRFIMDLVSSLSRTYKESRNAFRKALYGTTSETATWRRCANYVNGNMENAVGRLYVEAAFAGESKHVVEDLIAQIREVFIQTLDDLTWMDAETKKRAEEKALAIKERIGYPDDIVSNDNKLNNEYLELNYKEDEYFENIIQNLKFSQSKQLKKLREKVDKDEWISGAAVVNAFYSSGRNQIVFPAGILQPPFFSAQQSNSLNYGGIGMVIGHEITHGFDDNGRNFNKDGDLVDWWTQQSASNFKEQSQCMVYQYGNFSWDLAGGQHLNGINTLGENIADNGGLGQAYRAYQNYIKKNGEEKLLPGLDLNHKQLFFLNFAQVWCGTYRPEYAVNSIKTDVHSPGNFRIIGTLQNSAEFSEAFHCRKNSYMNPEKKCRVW

In general, IC50 refers to the concentration at which inhibition is half-maximal. With `[NH2][Pt]([NH2])([Cl])[Cl]` [CDDP, cisplatin, reference compound], the IC50 in the data set on osteosarcoma HOS cells was 3.5 ± 0.92 µM; in data set [1] (proliferation), 12.8 ± 3.7 µM. The figures for the “increase in active caspase 3 vs untreated cells” value in data set [2] and in data set [3] were “approx. 13%” and “approx. 9%”, respectively. For the same molecule, in data set [4], the “increase in active caspase 9 vs untreated cells” value is “approx. 10%”.
A word on the CC50: it is the concentration giving 50% cytotoxicity. As for `[BH3-][P+](Cc1ccccc1)(OC(C)C)OC(C)C` [Compound 1, benzylphosphonous acid-borane diisopropyl ester], the IC50 in the data set on osteosarcoma HOS cells (Homo sapiens, HOS) worked out at 164 ± 79.5 µM; in data set [1] (setting [6]), 91 ± 19.4 µM. Also, in [5] (setting [7]), the CC50 at 24 h was 161 ± 22.9 µM.
Take `[BH3-][P+](OC(C)C)(OC(C)C)C(C)(C)O` [Compound 2, 1-hydroxy-1-methylethylphosphonous acid-borane diisopropyl ester]: the IC50 was 344 ± 142 µM with osteosarcoma HOS cells (Homo sapiens, HOS) and 83.4 ± 18.4 µM in data set [1] (setting [6]). In addition, in data set [5] (setting [7]), the CC50 at 24 h stood at 182 ± 28.1 µM.
In the case of `[BH3-][P+](OC(C)C)(N(CC)CC)C(C)(C)O` (stereo not drawn) [Compound 3, 1-hydroxy-1-methylethylphosphonous acid-borane isopropyl ester N,N-diethylamide], the IC50 came to 226 ± 3.56 µM in the data set on osteosarcoma HOS cells (Homo sapiens, HOS) and 79.6 ± 13.6 µM in data set [1] (setting [6]). Also, in [5] (setting [7]), the half-maximal cytotoxic concentration (CC50) at 24 h came to 224 ± 95.3 µM.
For the molecule `[BH3-][P+](OC(C)C)(OC(C)C)C(Nc1ccc(O)cc1)c1ccccc1` (stereo not drawn) [Compound 5], the IC50 with osteosarcoma HOS cells (Homo sapiens, HOS) amounted to 79.5 ± 22.9 µM; in data set [1] (setting [6]), 96 ± 3.3 µM. The CC50 at 24 h in data set [5] (normal colon fibroblasts CCD-18Co cells, read-out: CC50 (µM ± SD) CCD-18Co) is 62.5 ± 36.2 µM; in data set [5] (setting [7]) it was 43.9 ± 3.5 µM.
As for `[BH3-][P+](OC(C)C)(OC(C)C)C(Nc1ccc(Br)cc1)c1ccc(OC)cc1` (stereo not drawn) [Compound 7, [1-(N-p-bromophenylamino)]-1-(p-anisyl)methylphosphonous acid-borane diisopropyl ester], the IC50 in the data set on osteosarcoma HOS cells (Homo sapiens, HOS) turned out to be 51.2 ± 18.6 µM; in data set [1] (setting [6]), 109 ± 15.8 µM. Besides, the CC50 at 24 h in data set [5] (setting [7]) stood at 214 ± 39.5 µM.
As for `O=C(O)CNC(=O)C(CS)Cc1ccccc1` (stereo not drawn) [thiorphan, N-[2-(mercaptomethyl)-1-oxo-3-phenylpropyl]glycine], the “decrease in NEP activity” value is given as “approx. 30%” on NEP (neprilysin) (0.0005 µM), “approx. 50%” at NEP (neprilysin) (0.005 µM) and approximately 60% on NEP (neprilysin) (0.01 µM). Further, the effect on proliferation entry in the data set on HOS cells (100 µM) is listed as “did not affect cell proliferation”; in the data set on Saos-2 cells (Saos-2, 100 µM) it was “did not affect cell proliferation”. Moreover, the decrease in proliferation entry is recorded as “approx. 30%” with HOS cells (200 µM); approximately 40% in the data set with HOS cells (500 µM); 35% in the data set with Saos-2 cells (Saos-2, 200 µM); 60% in the data set with Saos-2 cells (Saos-2, 500 µM).
